The values that follow come from patent US10220022B2, “Compositions and methods employing Wolbachia FtsZ as a target for Albendazole sulfone” (The Regents of the University of California, priority 2011, dated 2019).

The subject of one test is Wolbachia. The test is described as follows: Wolbachia titer in Drosophila oogenesis after drug feeding. Particulars: 24-hour treatment, counts from single oocyte focal planes; DMSO control 225+/−18. Format: in vivo. An excerpt: (§1) Drug feeding conditions: Fly feeding we done as previously described.
(§2) Staining: Drosophila Ovary staining was done with PI, anti-tubuli. Drosophila Embryo staining was done with anti-FtsZ. Brugia microfilarial staining was done with PI, anti-tubulin, and anti-FtsZ.
As Albendazole is already a widely used, FDA-approved drug, we proceeded to test it and the primary metabolites Albendazole sulfoxide and Albendazole sulfone for anti-Wolbachia effects in Drosophila oogenesis. This system provides a high-precision method for assessing Wolbachia titer in a well-characterized developmental context.

Another test addresses M. tuberculosis FtsZ (Mycobacterium tuberculosis, UniProt P9WN95). Particulars: cited from earlier work.
Test [1] relates to Wolbachia-infected JW18 cells. The test is described as follows: High-throughput screen for compounds reducing Wolbachia infection of JW18 cells. It is filed as cell-based, Drosophila. Particulars: 100 uM per well, 5-day incubation at 25 C, 3 replicates.
Description: Cells were plated in 384-well, clear bottom plates (Griener Bio-one) pre-coated with 0.5 mg/mL Concanavalin A. JW18 cells were added to 22 columns, and JW18TET cells were added to the remaining 2 columns at a dilution of 6500 cells per well. After the cells adhered to the plates, compounds were transferred into 20 columns of JW18 cells in the center of the plate using a Janus MDT pin tool. The final concentration of compound was 100 uM per well. All treatments were distributed into 3 plate replicates.
After a 5-day incubation with the compounds at 25 C, the cells were prepared for imaging. Cells were fixed for 20 minutes in 4% formaldehyde and rinsed with PBS using an automated BioTek liquid handler. All staining solutions were administered using a Multidrop robot, with extensive rinsing between treatments. The primary antibody, mouse anti histone (MAB052, Millipore), was used at 1:1250 in PBS/0.1% Triton. Secondary antibody goat anti-mouse Alexa 594 (Invitrogen) was used at 1:1250. DAPI was used as a saturated solution, diluted to a final concentration of 1:40. After staining, PBS+Azide was added to all wells of the plates.
Stained treatment plates were imaged using the MetaExpress Micro system (Molecular Devices, Sunnyvale Calif.). 10 images were acquired per well at 40× magnification. These images were next analyzed using customized journaling software provided by Molecular Devices. The journal first masks any areas where clumps of cells are detected, based upon intensity of the Jupiter-GFP. The boundaries of the remaining cells and their nuclei are recognized based upon the Jupiter-GFP and anti-histone stains. A mask is applied to the nuclei, to obscure the hi stone and DAPI signal from those areas. A threshold for DAPI fluorescence detection is set to detect as much Wolbachia as possible in JW18 control cells while minimizing detection of background DAPI signal in JW18TET control cells. Then this cytoplasmic DAPI level, read to indicate Wolbachia, is scored in the cytoplasm of individual cells to determine whether each cell is infected with Wolbachia. The cutoff value distinguishing “infected” from “uninfected” cells is 4000-5000 fluorescence units per cell.
A spreadsheet from the journal indicates the quantity of Wolbachia-infected cells versus total cells measured in each well. A Z′ factor is calculated for each plate based upon the average frequency of cell infection for JW18 and JW18TET control cells. […] An initial hit range is calculated to lie between the JW18 average infection frequency−3 standard deviations, and the average JW18TET infection frequency+3 standard deviations. To further refine identification of hits, we also calculated an average infection frequency for all JW18 cells on the plate (treated or not), as most treatment wells are expected to be indistinguishable from untreated controls. Wells are that lie within 3 standard deviations of the mean are exluded, and remaining wells are classified as hits within that replicate. Hit wells that are identified in at least 2 out of 3 replicates are considered to be finalized hits.
In this screen, 3081 compounds froth the National Cancer Institute were used. […] Cells were incubated for 5 days with each compound, then fixed, stained, and imaged using automated robotics (FIG. 2). Customized analysis software was used to compare the images from compound-treated wells to the control cells to assay for significant changes in the quantity of Wolbachia-infected cells. All treatment plates were run in triplicate.
Test [2] deals with oocyte microtubule cytoskeleton. Briefly: Posterior Wolbachia localization in treated oocytes. Format: in vivo. Conditions: treated Drosophila oocytes; DMSO controls 95%.
Description: as §1, §2
(§3) To address whether Albendazole sulfone acts on Wolbachia by disrupting the oocyte microtubule cytoskeleton, a combination of approaches was used. It has previously been shown that Wolbachia concentrate at the oocyte posterior cortex in a microtubule-dependent manner. […] We also examined the cytoskeleton directly by immunolabeling the microtubules.

For test [3] the test system is unchanged. The test is described as follows: Immunolabeling of oocyte microtubules. Format: in vivo, Drosophila. Particulars: immunolabeling of the microtubules, stage 10A oocytes.
Description: as §2, §3

The test system of a further test is B. malayi microtubules. The test is described as follows: Microtubule staining of treated Brugia malayi microfilariae. Particulars: compound fed to Brugia malayi microfilariae.
Description: as §2
(§4) To investigate whether Albendazole sulfone disrupts Walbachia FtsZ, we fed this compound to Brugia malayi microfilariae, which carry Wolbachia as an essential endosymbiont. […] This is consistent with the predicted benzimidazole susceptibility of B. malayi beta tubulin (FIG. 5).
(§5) In view of the above the inventors posed the questions: By what mechanism does Albendazole sulfone act against Wolbachia FtsZ? And is FtsZ disruption a consequence of host microtubule disassembly, or due to a separate effect on FtsZ by Albendazole sulfone? […] To further test whether Wolbachia FtsZ relies on host microtubules, we also treated Brugia with the microtubule-disrupting drug Colchicine.

A further test concerns Wolbachia FtsZ. The test is described as follows: FtsZ immunostaining in treated Brugia malayi microfilariae. Particulars: compound fed to Brugia malayi microfilariae.
Description: as §2, §4, §5

For a further test, the system named is Streptococcus pyrogenes. Conditions: prior screen; cited from earlier work.
For a further test, the system named is beta-tubulin. Conditions: relative to Albendazole sulfoxide; cited from earlier work.

Chain of M. tuberculosis FtsZ (P9WN95 whole entry): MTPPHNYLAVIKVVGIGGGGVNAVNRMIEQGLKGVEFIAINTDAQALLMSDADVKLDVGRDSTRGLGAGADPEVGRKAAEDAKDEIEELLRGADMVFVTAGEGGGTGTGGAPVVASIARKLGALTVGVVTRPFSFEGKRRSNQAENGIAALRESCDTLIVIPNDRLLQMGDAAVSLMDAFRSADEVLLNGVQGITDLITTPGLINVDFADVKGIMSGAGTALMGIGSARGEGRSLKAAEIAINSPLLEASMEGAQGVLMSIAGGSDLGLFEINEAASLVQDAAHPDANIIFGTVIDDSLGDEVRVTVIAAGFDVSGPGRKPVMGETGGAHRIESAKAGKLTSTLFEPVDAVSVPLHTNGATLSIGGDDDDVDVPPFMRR

`CCCSc1ccc2nc(NC(=O)OC)[nH]c2c1` [Albendazole]: the Wolbachia per oocyte with Wolbachia was 194+/−20 Wolbachia per oocyte. Besides, on M. tuberculosis FtsZ, the “effect on M. tuberculosis FtsZ” value is on record as “unaffected”.

For `CN1CCN(c2ccc([N+](=O)[O-])c3no[n+]([O-])c23)CC1` [NSC207895], the “reduction of Wolbachia-infection frequency (screen hit)” value (“reduction” below) in test [1] was “hits”.

As to `COC1=C(C)C(=O)C2=C(C1=O)[C@H](COC(N)=O)[C@@]1(O)[C@@H]3[C@H](CN21)N3C` (stereo partly drawn) [Mitomycin B], in test [1], the “reduction” value is given as “hits”.

Take `COc1cc2c(c(OC)c1OC)-c1ccc(OC)c(=O)cc1[C@@H](NC(C)=O)CC2` [Colchicine, reference compound]: the “oocytes with posterior Wolbachia localization” value in test [2] turned out to be 21%. In addition, in test [3], the oocyte microtubule structure entry was “devoid of filamentous structure”. Moreover, the “effect on Brugia host microtubules” value with B. malayi microtubules is on record as “severely disrupted host microtubules”. For the same compound, the “effect on Wolbachia FtsZ” value in the test with Wolbachia FtsZ was “FtsZ remained concentrated near Wolbachia DNA”.

As to `O=[N+]([O-])/C=C/c1cc2ccccc2[nH]1` [NSC150982], the “reduction” value in test [1] is “anti-Wolbachia”.

`CC[C@@]1(O)C[C@H](O[C@H]2C[C@H](N(C)C)[C@H](O[C@H]3C[C@@H]4O[C@H]5CC(=O)[C@H](C)O[C@H]5O[C@@H]4[C@H](C)O3)[C@H](C)O2)c2c(cc3c(c2O)C(=O)c2c(O)ccc(O)c2C3=O)[C@H]1C(=O)OC` [Cinerubin B]: the “reduction” value in test [1] is recorded as “hits”.

For `CCC[S+]([O-])c1ccc2[nH]c(NC(=O)OC)nc2c1` (stereo not drawn) [Albendazole sulfoxide], the Wolbachia per oocyte with Wolbachia was 255+/−27 Wolbachia per oocyte.

Take `CCN1/C(=C/C(C)=C/c2sc3ccccc3[n+]2CC)Sc2ccccc21.[I-]` [NSC96932]: in test [1], the “reduction” value is listed as “hits”. In the test with Streptococcus pyrogenes, the antibacterial activity result was “exert antibacterial activity”.

Turning to `CCCS(=O)(=O)c1ccc2nc(NC(=O)OC)[nH]c2c1` [Albendazole sulfone], in the test with Wolbachia, the Wolbachia per oocyte is 150+/−13 Wolbachia per oocyte. Also, the “oocytes with posterior Wolbachia localization” value in test [2] was determined as 93%. The oocyte microtubule structure entry in test [3] is given as “fibrillar microtubule arrays”. For the same compound, the “effect on Brugia host microtubules” value in the test on B. malayi microtubules is reported as “widespread disruption of B. malayi microtubules”. The “effect on Wolbachia FtsZ” value in the test with Wolbachia FtsZ is recorded as “FtsZ was also disrupted in most”. The “potency as disrupter of beta-tubulin” value in the test with beta-tubulin is on record as “far less potent disrupter of beta-tubulin than Albendazole sulfoxide”.

In the case of `C[C@H]1c2cccc(O)c2C(=O)C2=C(O)[C@]3(O)C(=O)C(C(N)=O)=C(O)[C@@H](N(C)C)[C@@H]3[C@@H](O)[C@@H]21` [Doxycycline], the Wolbachia per oocyte with Wolbachia is given as 126+/−11 Wolbachia per oocyte.

For the compound `O=C(CSc1nc2ccccc2s1)c1sc2sc3ccccc3[n+]2c1O` [NSC339601], in test [1], the “reduction” value was “anti-Wolbachia”.
